Test results as given in publication PMC8294803, “A Roadmap to the Structure-Related Metabolism Pathways of Per- and Polyfluoroalkyl Substances in the Early Life Stages of Zebrafish (Danio rerio)” (Environmental Health Perspectives, 2021).
Values joined by “and” are separate entries in the source; they are usually repeats but may differ in a detail not shown here. Equal entries are not always repeated.

How the values were obtained:
[1] = system: zebrafish embryos; experiment: Time courses of carboxamides and PFCA metabolites in zebrafish embryos/larvae; type: in vivo, Danio rerio; settings: zebrafish exposed to 5 μM of 19, 31 and 38 separately, N=20, three replicates
Description: Time courses of carboxamides (19, 31, and 38) and corresponding perfluoroalkyl carboxylic acid (PFCA) metabolites in zebrafish larvae were investigated. The procedure of zebrafish embryo collection was described above. Twenty embryos were randomly assigned into each well of a 24-well plate. Subsequently, 15 wells were dosed with 3mL of each chemical ( 5μM ). […] The exposure medium was prepared fresh and changed each day, and dead larvae were discarded. For each chemical, 3 wells were harvested every 24 h, and the surviving larvae were transferred to three different tubes for further PFAS extraction ( N=12–18 ).

[2] = system: zebrafish embryos; settings: for pericardial oedemata, Mean / spinal curvature, Mean / tail dysplasia, Mean: 5μM through 120 hpf, malformation rate; for Mortality (%): 5 µM, exposure through 120 hpf
[3] = system: zebrafish larvae; experiment: Identification of taurine conjugates by the DIPIC-Frag method in zebrafish larvae; type: in vivo, Danio rerio; settings: among 74 PFAS
Source text: To identify the taurine conjugates in zebrafish larvae exposed to PFAS, we used the data-independent precursor isolation and characteristic fragment (DIPIC-Frag) method developed in previous studies ([Peng et al. 2015], [2016]) to enhance the coverage inspired by the detection of the characteristic fragment from taurine conjugates ( [taurine-H]^− , m/z 124.0063). Then, the taurine fragment peak was extracted from each AIF window across all 243 raw MS data. Once the taurine fragment peak was detected, corresponding precursor ions were identified from the same window and sample by aligning their chromatographic peaks. The precursor ions were further confirmed by their co-occurrences with the taurine fragment across samples. Once precursor ions were identified, the compound formulas and structures were predicted by interpreting high-resolution MS and MS/MS spectra, as mentioned above.

[4] = system: zebrafish larvae; experiment: Nontargeted analysis of PFAS metabolites in zebrafish larvae (high-resolution MS)
Description: (§1) Zebrafish embryos were collected immediately after spawning, within 1 h, and subsequently transferred to 24-well plates with 1mL of facility water ( 0.036g sea salt, 0.15g sodium bicarbonate in 2L of reverse osmosis water). […] Three well replicates on the same plate were conducted for each concentration of individual chemical. […] Seven batches of experiments were performed to test all 74 PFAS. DMSO controls were incorporated in each batch of exposure experiments. Three replicates were performed for each treatment group, and 20 embryos were used for each replicate. […] For daily replenishment, 2.5mL of old exposure medium were replaced with freshly prepared medium every 24 h from 24 to 96 h post fertilization (hpf). Hatched or dead embryo numbers were recorded every 24 hpf, after which dead embryos were discarded from the growth media. Dead embryos or unhatched embryos were not used for PFAS measurement because the metabolism of PFAS might have been impacted. Zebrafish larvae collection occurred at 120 hpf. First, the larvae were anesthetized by cooling the plate in ice water (0–4°C) for ∼20 min . Then 8–15 larvae in each well were transferred into 1.5-mL tubes. Exposure media was carefully removed, and then the larvae were weighed (wet weight) after blotting excess water with a paper towel. […] Samples were stored at −80 °C until further chemical analysis was performed. Survival rate and hatching rate were calculated by summarizing all the documented data from the whole treatment duration. […] The exposure experiment of PFOSA was repeated using the same procedure as described above.
(§2) Each sample was spiked with 2μL of 0.2μg/mL mass-labeled PFAS mixture. Following this, 500μL of dichloromethane/methanol (2:1, vol/vol) was added to each sample for PFAS extraction. Larvae were then homogenized via ultrasonic probe, followed by 30 min of shaking and 30 min of sonication. Each sample was centrifuged at 14,000×g for 5 min, after which the supernatant was transferred to new tubes. Extraction was repeated once and the two supernatants were combined, evaporated under nitrogen flow, and reconstituted in 200μL of methanol for MS analysis.
(§3) Three microliters of each zebrafish extract was applied to a C18 column ( 1.5μm; 2.1mm×50mm; Thermo Scientific) and analyzed using a Vanquish ultra-HPLC system (Thermo Fisher Scientific) coupled to a Q Exactive high-resolution mass spectrometer (Thermo Fisher Scientific). The sampler and column compartments were maintained at 4°C and 40°C, respectively. The aqueous mobile phase solution (A) consisted of water, whereas the organic mobile phase solution (B) consisted of acetonitrile. […] MS data was acquired in full scan mode (100–1000 m/z, 70,000 mass resolution, 3×10^6 maximum ions collected per 100 ms), and tandem MS (MS/MS) data was recorded by all-ion fragmentation (AIF) mode. Negative and positive ion modes were carried out simultaneously at a 10-min method duration. […] An overview of the analyses conducted on the various PFAS is available in Table S2.
Nontargeted data analysis was accomplished with R scripts that are available on Github (https://github.com/huiUofT/PFASmetabolite). […] The peak features were matched across samples with a mass tolerance of 2.5 ppm and a RT window of 20 s, after RT adjustment. The ratio of abundances of each feature in treatment groups relative to the control group (DMSO) was calculated. The p -values of the difference between two groups were determined by student’s t -tests.

[5] = target: liver fatty acid binding protein (L-FABP); parameters: method as in Yang et al. 2020; settings: ref Yang et al. 2020; read-out: Kd (μM), L-FABP binding affinity; cited from earlier work
[6] = system: zebrafish larvae; experiment: Bioconcentration factors (BCF) of PFAS in zebrafish larvae; settings: for BCF 0.5µM: 0.5 µM exposure; for BCF 0.5µM / BCF 5µM: 120 hpf, three replicates; for BCF 5µM: 5 µM exposure
Description: as §1, §2, §3
GraphPad Prism (version 7.0.4; GraphPad Software) and R studio (version 1.1.456; R Studio Inc.) software was used, and an ANOVA with Dunnett tests was employed to evaluate the statistical significance of the percentage hatched and mortality rate. Exponential regressions were used to determine the relationships between bioconcentration factor (BCF) and binding affinities ( Kd ) to L-FABP.

[7] = target: T1, recombinant human liver carboxylesterase 1 (hCES1) (Homo sapiens, UniProt P23141); experiment: Hydrolysis of PFAS by recombinant hCES1; type: in vitro ADME; settings: for percentage of polyfluoroalkyl carboxamide 19, hCES1: 100 μg/L hCES1; for percentage of polyfluoroalkyl carboxamide 19, hCES1 / percentage of polyfluoroalkyl carboxamide 19, Control: 37 °C, 1 hour, N=3; for percentage of polyfluoroalkyl carboxamide 19, Control: vehicle control without hCES1
T1 construct: purchased Sigma Aldrich
T1 sequence (P23141 18-567): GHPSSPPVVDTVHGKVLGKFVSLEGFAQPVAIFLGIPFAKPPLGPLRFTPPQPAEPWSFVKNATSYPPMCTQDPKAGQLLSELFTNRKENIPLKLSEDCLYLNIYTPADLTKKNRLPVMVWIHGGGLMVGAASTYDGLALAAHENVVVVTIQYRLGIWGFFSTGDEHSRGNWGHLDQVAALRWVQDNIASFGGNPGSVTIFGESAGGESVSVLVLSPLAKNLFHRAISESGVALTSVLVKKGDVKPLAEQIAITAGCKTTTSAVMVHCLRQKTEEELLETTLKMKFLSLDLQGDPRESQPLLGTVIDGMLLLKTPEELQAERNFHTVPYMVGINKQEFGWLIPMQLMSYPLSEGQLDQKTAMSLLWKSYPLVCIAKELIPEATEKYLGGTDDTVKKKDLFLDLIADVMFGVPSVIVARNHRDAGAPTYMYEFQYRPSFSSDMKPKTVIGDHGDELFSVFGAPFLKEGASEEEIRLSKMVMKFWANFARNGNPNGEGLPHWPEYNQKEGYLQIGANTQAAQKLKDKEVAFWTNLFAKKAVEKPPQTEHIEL
Description: Because recombinant zebrafish CES is not available, we decided to use hCES1 to evaluate the structure-related hydrolysis of PFAS. […] In vitro enzymatic activity experiments were carried out for 1 h in 1.5-mL tubes with 100μL phosphate buffer ( 137 mM sodium chloride, 10 mM phosphate buffer, 2.7 mM potassium chloride; pH 7.4) at 37°C with shaking. Reaction mixtures contained different concentrations of PFAS (1, 10, and 50μM ) and 100μg/L hCES1. […] To stop the hydrolysis reaction, four times the volume of ice-cold methanol was added. The hCES1 protein was precipitated out by centrifugation ( 14,000×g , 10 min). The supernatant was transferred to a new tube and analyzed via MS for the analysis of parent compounds and suspected metabolites (i.e., carboxylates).

Compound | Peak intensity in zebrafish ([1]; 24 hpf) | Peak intensity in zebrafish ([1]; 48 hpf) | Peak intensity in zebrafish ([1]; 72 hpf) | Peak intensity in zebrafish ([1]; 96 hpf) | Peak intensity in zebrafish ([1]; 120 hpf) | pericardial oedemata, Mean [2] | spinal curvature, Mean [2] | tail dysplasia, Mean [2] | Mortality (%) [2] | Taurine conjugates detected [3] | other results
O=C(O)C(F)(F)C(F)(F)C(F)(F)C(F)F [1H-PFPeA] | 41617598 and 43836041 and 44656574 | 60989972 and 64452114 and 58767796 | 101000000 and 97804534 and 98584848 | 168000000 and 176000000 and 174000000 | 221000000 and 206000000 and 215000000 | – | – | – | – | – | –
OCCCC(F)(F)C(F)(F)C(F)(F)F [compound 49, 3-(Perfluoropropyl)propanol] | – | – | – | – | – | 0.00% | 0.00% | 0.00% | 1.1% | taurine conjugates were detected | –
O=C(O)C(F)(F)C(F)(F)C(F)(F)F [PFBA (12)] | 10634213 and 16343253 and 15866316 | 25172596 and 26956389 and 28007592 | 26852594 and 32851030 and 26877542 | 47637483 and 46740315 and 40653414 | 68162507 and 69974600 and 72855428 | – | – | – | – | – | –
3-(Perfluoro-2-butyl)propane-1,2-diol [compound 30] | – | – | – | – | – | 2.22% | 2.22% | 0.00% | 0% | taurine conjugates were detected | –
O=C(O)C(F)(F)C(F)(F)C(F)F [compound 4, 4H-Perfluorobutanoic acid] | – | – | – | – | – | 1.11% | 2.22% | 0.00% | 0% | – | Peak intensity of PFCA in zebrafish embryos directly exposed to the PFCA ([4]; 5μM through 120 hpf, single replicates, listed as 1H-PFBA): 18758096 and 21668103 and 32644288; Kd [5]: 352 µM; Concentration in zebrafish larvae directly exposed ([6]; 5μM of the PFCA itself): 7.0 ± 1.3 µM; BCF 0.5µM ([6]; zebrafish larvae): 3.397 L/kg; BCF 5µM ([6]; zebrafish larvae): 1.9 ± 0.4 L/kg
O=C(O)C(F)(F)C(F)(F)C(F)(F)C(F)(F)F [PFPeA, perfluoropentanoic acid] | 42022849 and 47643542 and 46800668 | 46439212 and 83368187 and 82483907 | 149000000 and 148000000 and 143000000 | 242000000 and 252000000 and 243000000 | 224000000 and 215000000 and 223000000 | – | – | – | – | – | –
COC(=O)CCC(F)(F)C(F)(F)C(F)(F)C(F)(F)F [compound 39, Methyl 2H,2H,3H,3H-perfluoroheptanoate] | – | – | – | – | – | 0.00% | 0.00% | 0.00% | 1.1% | taurine conjugates were detected | –
O=C(O)C=CC(F)(C(F)(F)F)C(F)(F)F [compound 56, 3-(Perfluoroisopropyl)-2-propenoic acid] | – | – | – | – | – | 0.00% | 0.00% | 0.00% | 4.4% | taurine conjugates were detected | BCF 0.5µM ([6]; zebrafish larvae): 2.65 L/kg; BCF 5µM ([6]; zebrafish larvae): 1.6 ± 0.21 L/kg
NC(=O)C(F)(F)C(F)(F)C(F)(F)C(F)(F)F [compound 19, Nonafluoropentanamide] | – | – | – | – | – | 0.00% | 0.00% | 0.00% | 1.1% | – | Metabolites / hydrolysis products in zebrafish larvae ([4]; in vivo, nontargeted analysis): high abundances of metabolized carboxylates were detected; percentage of polyfluoroalkyl carboxamide 19, hCES1 ([7]; 1 μM 19): 0.00%; percentage of polyfluoroalkyl carboxamide 19, Control ([7]; 1 μM 19): 114.95% and 85.05%; percentage of polyfluoroalkyl carboxamide 19, hCES1 ([7]; 10 μM 19): 0.00%; percentage of polyfluoroalkyl carboxamide 19, Control ([7]; 10 μM 19): 100.46% and 90.28% and 109.26%; Parent hydrolyzed by hCES1 ([7]; 10μM PFAS, 100μg/L hCES1): completely metabolized; Parent PFAS, hCES1 (%) ([7]; 10 μM PFAS, 100 μg/L hCES1, phosphate buffer 37 °C 1 hour, single replicates, axis %Control): 0.00%; Parent PFAS, Control (%) ([7]; 10 μM PFAS, without hCES1, phosphate buffer 37 °C 1 hour, single replicates): 100.46% and 90.28% and 109.26%; percentage of polyfluoroalkyl carboxamide 19, hCES1 ([7]; 50 μM 19): 62.27% and 65.75% and 66.90%; percentage of polyfluoroalkyl carboxamide 19, Control ([7]; 50 μM 19): 96.65% and 95.06% and 108.30%; BCF ([6]; zebrafish larvae, exposure concentration not given): < 10 L/kg
